From ChEMBL document CHEMBL3734724, “Anticancer efficacy of unique pyridine-based tetraindoles” (Eur J Med Chem, 2015)

Tests used:
MDA-MB-231 [1] = test: Cytotoxicity against human MDA-MB-231 cells assessed as growth inhibition after 48 hrs by MTT assay; assay type: functional, cell-based; conditions: MDA-MB-231, 48 h
[2] = Cytotoxicity against human BT549 cells assessed as growth inhibition after 48 hrs by MTT assay; assay type: functional, cell-based; conditions: BT-549, 48 h
[3] = Cytotoxicity against human Hs578T cells assessed as growth inhibition after 48 hrs by MTT assay; assay type: functional, cell-based; conditions: Hs-578T
MCF7 [4] = test: Cytotoxicity against human MCF7 cells assessed as growth inhibition after 48 hrs by MTT assay; assay type: functional, cell-based; conditions: MCF7, 48 h
[5] = Cytotoxicity against human M10 cells assessed as growth inhibition after 48 hrs by MTT assay; assay type: cell-based; conditions: M10, 48 h
MDA-MB-231 [6] = test: Cytotoxicity against human MDA-MB-231 cells assessed as growth inhibition at 20 uM after 48 hrs by MTT assay relative to control; assay type: functional; conditions: MDA-MB-231, 48 h, read-out: GI
[7] = Cytotoxicity against human BT549 cells assessed as growth inhibition at 20 uM after 48 hrs by MTT assay relative to control; assay type: functional; conditions: BT-549, 48 h, read-out: GI
[8] = Cytotoxicity against human Hs578T cells assessed as growth inhibition at 20 uM after 48 hrs by MTT assay relative to control; assay type: functional; conditions: Hs-578T, read-out: GI
MCF7 [9] = test: Cytotoxicity against human MCF7 cells assessed as growth inhibition at 20 uM after 48 hrs by MTT assay relative to control; assay type: functional; conditions: MCF7, 48 h, read-out: GI
[10] = Cytotoxicity against human M10 cells assessed as growth inhibition at 20 uM after 48 hrs by MTT assay relative to control; assay type: cell-based; conditions: read-out: GI
4T1 = test: Antitumor activity against luciferase-expressing mouse 4T1 cells allografted in athymic nude BALB/c mouse assessed as tumor growth inhibition at 12.5 mg/kg/week ip administered on first 3 days in first week followed by two shots on day 1 and day 4 at 6.25 mg/kg/week for another 3 weeks measured every other day until day 28 relative to vehicle-treated control; assay type: functional

Row | SMILES | IC50 (MDA-MB-231 [1]) | IC50 [2] | IC50 [3] | IC50 (MCF7 [4]) | IC50 [5] | inhibition of growth at 20 µM (MDA-MB-231 [6]) | inhibition of growth at 20 µM [7] | inhibition of growth at 20 µM [8] | inhibition of growth at 20 µM (MCF7 [9]) | inhibition at 48 h, 20 µM [10] | TGI (4T1)
1 | COc1ccc2[nH]cc(C(c3ccc(C(c4c[nH]c5ccc(OC)cc45)c4c[nH]c5ccc(OC)cc45)nc3)c3c[nH]c4ccc(OC)cc34)c2c1 | > 20 µM | > 20 µM | > 20 µM | > 20 µM | > 20 µM | 11% | 48% | 21% | 29% | 0% | –
2 | Clc1ccc2[nH]cc(C(c3ccc(C(c4c[nH]c5ccc(Cl)cc45)c4c[nH]c5ccc(Cl)cc45)nc3)c3c[nH]c4ccc(Cl)cc34)c2c1 | > 20 µM | > 20 µM | > 20 µM | > 20 µM | > 20 µM | 9% | 23% | 0% | 11% | 25% | –
3 | c1ccc2c(C(c3ccc(C(c4c[nH]c5ccccc45)c4c[nH]c5ccccc45)nc3)c3c[nH]c4ccccc34)c[nH]c2c1 | > 20 µM | 15 µM | 9 µM | > 20 µM | > 20 µM | 4% | – | – | 21% | 26% | –
4 | N#Cc1ccc2[nH]cc(C(c3ccc(C(c4c[nH]c5ccc(C#N)cc45)c4c[nH]c5ccc(C#N)cc45)nc3)c3c[nH]c4ccc(C#N)cc34)c2c1 | > 20 µM | > 20 µM | > 20 µM | > 20 µM | > 20 µM | 0% | 28% | 22% | 0% | 0% | –
5 | c1cc(C(c2c[nH]c3ccccc23)c2c[nH]c3ccccc23)nc(C(c2c[nH]c3ccccc23)c2c[nH]c3ccccc23)c1 | > 20 µM | > 20 µM | > 20 µM | > 20 µM | > 20 µM | 29% | 22% | 8% | 47% | 32% | –
6 | N#Cc1ccc2[nH]cc(C(c3cccc(C(c4c[nH]c5ccc(C#N)cc45)c4c[nH]c5ccc(C#N)cc45)n3)c3c[nH]c4ccc(C#N)cc34)c2c1 | > 20 µM | 13 µM | > 20 µM | > 20 µM | > 20 µM | 0% | – | 22% | 13% | 0% | –
7 | c1ccc(COc2ccc3[nH]cc(C(c4cccc(C(c5c[nH]c6ccc(OCc7ccccc7)cc56)c5c[nH]c6ccc(OCc7ccccc7)cc56)n4)c4c[nH]c5ccc(OCc6ccccc6)cc45)c3c2)cc1 | > 20 µM | > 20 µM | > 20 µM | > 20 µM | > 20 µM | 0% | 40% | 0% | 0% | 30% | –
8 | COc1ccc2[nH]cc(C(c3cccc(C(c4c[nH]c5ccc(OC)cc45)c4c[nH]c5ccc(OC)cc45)n3)c3c[nH]c4ccc(OC)cc34)c2c1 | > 20 µM | 14 µM | > 20 µM | > 20 µM | > 20 µM | 0% | – | 18% | 9% | 0% | –
9 | Fc1ccc2[nH]cc(C(c3ccc(C(c4c[nH]c5ccc(F)cc45)c4c[nH]c5ccc(F)cc45)nc3)c3c[nH]c4ccc(F)cc34)c2c1 | 8.6 µM | 13.1 µM | 17 µM | 14 µM | 19 µM | – | – | – | – | – | –
10 | Brc1ccc2[nH]cc(C(c3cccc(C(c4c[nH]c5ccc(Br)cc45)c4c[nH]c5ccc(Br)cc45)n3)c3c[nH]c4ccc(Br)cc34)c2c1 | > 20 µM | > 20 µM | > 20 µM | > 20 µM | > 20 µM | 13% | 15% | 0% | 0% | 0% | –
11 | Clc1ccc2[nH]cc(C(c3cccc(C(c4c[nH]c5ccc(Cl)cc45)c4c[nH]c5ccc(Cl)cc45)n3)c3c[nH]c4ccc(Cl)cc34)c2c1 | > 20 µM | 6 µM | > 20 µM | > 20 µM | > 20 µM | 0% | – | 5% | 20% | 28% | –
12 | Fc1ccc2[nH]cc(C(c3cccc(C(c4c[nH]c5ccc(F)cc45)c4c[nH]c5ccc(F)cc45)n3)c3c[nH]c4ccc(F)cc34)c2c1 | 9.6 µM | 9.7 µM | 8.9 µM | 20 µM | 12 µM | – | – | – | – | – | –
13 | Oc1ccc2[nH]cc(C(c3cccc(C(c4c[nH]c5ccc(O)cc45)c4c[nH]c5ccc(O)cc45)n3)c3c[nH]c4ccc(O)cc34)c2c1 | 10.3 µM | > 20 µM | > 20 µM | > 20 µM | > 20 µM | – | 10% | 2% | 11% | 9% | –
14 | Oc1ccc2c(C(c3ccc(C(c4c[nH]c5cc(O)ccc45)c4c[nH]c5cc(O)ccc45)nc3)c3c[nH]c4cc(O)ccc34)c[nH]c2c1 | 14 µM | > 20 µM | > 20 µM | > 20 µM | > 20 µM | – | 19% | 0% | 0% | 0% | –
15 | Oc1ccc2[nH]cc(C(c3ccc(C(c4c[nH]c5ccc(O)cc45)c4c[nH]c5ccc(O)cc45)cc3)c3c[nH]c4ccc(O)cc34)c2c1 | – | – | – | – | – | – | – | – | – | – | 16%
16 | Brc1ccc2[nH]cc(C(c3ccc(C(c4c[nH]c5ccc(Br)cc45)c4c[nH]c5ccc(Br)cc45)nc3)c3c[nH]c4ccc(Br)cc34)c2c1 | > 20 µM | 10 µM | > 20 µM | > 20 µM | > 20 µM | 15% | – | 0% | 0% | 0% | –
